Data set [1] addresses CYP2C9 (Homo sapiens, UniProt P11712). In words: CYP2C9 inhibition (fluorescent substrate). The class given is in vitro ADME. As to conditions: CYP2C9, MFC substrate; read-out: Cyp IC50 2C9. How it is done: CYP (Cytochrome P450) enzymes are the major drug metabolizing enzymes present in the liver. The inhibition of CYP enzyme activity (IC50) for each of CYP1A2, CYP2C19, CYP2C9, CYP2D6, CYP3A4(BFC) and CYP3A4(BQ) is determined for compounds, where inhibition of metabolism of a known substrate leads to a decrease in the fluorescence of the metabolized product. The fluorescence of the product is monitored as a function of compound concentration.
Compounds are dissolved in dimethyl sulfoxide to a concentration of 100 mM. These are diluted 1 μL into 82 μL of acetonitrile. […] These are then serially diluted 1:1 (160 μL to 160 μL co-factor mix) for a total of 10 points. A 10 μL aliquot of this final mixture is dispensed into 384 well assay plates and incubated for 10 minutes at 37° C. […] Assay plates are incubated at 37° C. […] The signal versus compound concentration is used to determine the IC50. The enzymes and substrates for this assay are obtained from BD Biosciences.

A short description of data set [2]: Relative solubility by turbidity in aqueous buffers of varying pH. In kind it is physicochemical. The settings on record: for turbidity threshold (L, M, H) 7.4: HEPES pH 7.4; for turbidity threshold (L, M, H) 4.5: SIF pH 4.5; for turbidity threshold (L, M, H) 6.8: SIF pH 6.8; for turbidity threshold (L, M, H) 1.4: buffer pH 1.4 (SGF). How it is done: As an indication of relative solubility, the turbidity of compounds in aqueous solutions is assessed. To assess possible compound properties in different physiological compartments, such as stomach, intestine, and blood, a series of aqueous buffers with varying pH is used. Thus each compound is diluted into four different physiologically relevant buffers and solution turbidity is measured by spectrophotometry.
Compounds are dissolved at a concentration of 25 mM in dimethyl sulfoxide, then serially diluted 1:1 into a 96 well plate, diluting 10 times in pure dimethyl sulfoxide, with the final well of each row a dimethyl sulfoxide blank. In an assay plate, 99 μL of appropriate buffer is added to each well, and 1 μL of each sample dilution is added to the buffer, achieving a range of final total concentrations in aqueous solutions having different pH. The buffers used are Simulated Gastric Fluid (SGF-pH 1.5) 0.5M NaCl, pH 1.5; Simulated Intestinal fluid (SIF-pH 4.5 and pH 6.8) 0.05M NaH2PO4, pH 4.5 and 6.8; and Hepes Buffer (HEPES-pH 7.4) 10 mM HEPES, 150 mM NaCl, pH 7.4. Control compounds pyrene, estriol and propranolol HCl are also assessed. Plates are spun and then mixed for 1 minute, and the absorbance is read using a Tecan Safire II to read wavelengths in the visible range (490, 535, and 650 nm) at four locations per well, reflecting the degree of turbidity present. The average optical density for each wavelength in each well is graphed vs. compound concentration, and the concentration at which the curve crosses a threshold O.D. of 0.01 for each wavelength is reported as the endpoint turbidity assay result. The average of the three wavelengths is used to compare turbidity of compounds. Compounds are considered to have low solubility if the threshold concentration is <31.3 04, moderate solubility if the threshold concentration is 31.3 μM to 250 μM, and high solubility if the threshold concentration is >250 μM.

The structures appear in SMILES notation. Some results are limits rather than exact numbers.

CYP2C9, sequence (P11712 whole entry): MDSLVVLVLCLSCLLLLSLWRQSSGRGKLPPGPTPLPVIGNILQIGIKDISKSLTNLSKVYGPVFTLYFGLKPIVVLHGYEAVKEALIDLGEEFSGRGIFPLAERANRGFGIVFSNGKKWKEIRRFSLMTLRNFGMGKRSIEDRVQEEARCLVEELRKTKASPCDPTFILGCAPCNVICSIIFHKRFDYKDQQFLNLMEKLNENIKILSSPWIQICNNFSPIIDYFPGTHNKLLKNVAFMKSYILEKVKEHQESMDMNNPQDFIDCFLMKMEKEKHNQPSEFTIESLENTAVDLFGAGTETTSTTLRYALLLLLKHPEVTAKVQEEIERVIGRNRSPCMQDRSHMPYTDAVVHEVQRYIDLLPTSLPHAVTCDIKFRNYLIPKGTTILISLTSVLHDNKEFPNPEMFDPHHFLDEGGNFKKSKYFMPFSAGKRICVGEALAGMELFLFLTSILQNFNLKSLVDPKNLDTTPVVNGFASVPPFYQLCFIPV

Regarding `CCCS(=O)(=O)Nc1ccc(F)c(C(=O)c2c[nH]c3ncc(-c4cnc(N5CCOCC5)nc4)cc23)c1F` [P-2197, Propane-1-sulfonic acid {2,4-difluoro-3-[5-(2-morpholin-4-yl-pyrimidin-5-yl)-1H-pyrrolo[2,3-b]pyridine-3-carbonyl]-phenyl}-amide], the IC50 in data set [1] is more than 10 µM. For the same compound, in data set [2], the “turbidity threshold (L, M, H) 7.4” value is listed as “L (low solubility if the threshold concentration is <31.3 04)”; the “turbidity threshold (L, M, H) 4.5” value is on record as “L (low solubility if the threshold concentration is <31.3 04)”; the “turbidity threshold (L, M, H) 6.8” value is “L (low solubility if the threshold concentration is <31.3 04)”; the “turbidity threshold (L, M, H) 1.4” value is given as “M (moderate solubility if the threshold concentration is 31.3 μM to 250 μM)”.
`N#Cc1ccnc2[nH]cc(C(=O)c3c(F)ccc(NS(=O)(=O)c4ccccc4F)c3F)c12` [P-2020, N-[3-(4-Cyano-1H-pyrrolo[2,3-b]pyridine-3-carbonyl)-2,4-difluoro-phenyl]-2-fluoro-benzenesulfonamide]: the IC50 in data set [1] was more than 10 µM. In addition, in data set [2], the “turbidity threshold (L, M, H) 7.4” value is “M (moderate solubility if the threshold concentration is 31.3 μM to 250 μM)”; the “turbidity threshold (L, M, H) 4.5” value was “M (moderate solubility if the threshold concentration is 31.3 μM to 250 μM)”; the “turbidity threshold (L, M, H) 6.8” value is given as “M (moderate solubility if the threshold concentration is 31.3 μM to 250 μM)”; the “turbidity threshold (L, M, H) 1.4” value is given as “M (moderate solubility if the threshold concentration is 31.3 μM to 250 μM)”.
Consider `CCCS(=O)(=O)Nc1ccc(F)c(C(=O)c2c[nH]c3ncc(-c4ccc(C(=O)NC)nc4)cc23)c1F` [P-2180, 5-{3-[2,6-Difluoro-3-(propane-1-sulfonylamino)-benzoyl]-1H-pyrrolo[2,3-b]pyridin-5-yl}-pyridine-2-carboxylic acid methylamide], for which the IC50 in data set [1] was less than 5 µM. Further, in data set [2], the “turbidity threshold (L, M, H) 7.4” value was “L (low solubility if the threshold concentration is <31.3 04)”; the “turbidity threshold (L, M, H) 4.5” value is reported as “L (low solubility if the threshold concentration is <31.3 04)”; the “turbidity threshold (L, M, H) 6.8” value was “L (low solubility if the threshold concentration is <31.3 04)”; the “turbidity threshold (L, M, H) 1.4” value is recorded as “L (low solubility if the threshold concentration is <31.3 04)”.
Regarding `CCCS(=O)(=O)Nc1ccc(F)c(C(=O)c2c[nH]c3ncc(-c4cccc(S(C)(=O)=O)c4)cc23)c1F` [P-2228, Propane-1-sulfonic acid {2,4-difluoro-3-[5-(3-methanesulfonyl-phenyl)-1H-pyrrolo[2,3-b]pyridine-3-carbonyl]-phenyl}-amide], the IC50 in data set [1] was more than 10 µM.
On the same count and under the same terms, for `N#Cc1ccnc2[nH]cc(C(=O)c3c(F)ccc(NS(=O)(=O)c4cccnc4)c3F)c12` [P-2077, Pyridine-3-sulfonic acid [3-(4-cyano-1H-pyrrolo[2,3-b]pyridine-3-carbonyl)-2,4-difluoro-phenyl]-amide] the value was 5 to 10 µM.
Regarding `CCCS(=O)(=O)Nc1ccc(F)c(C(=O)c2c[nH]c3ncc(-c4cncc(S(C)(=O)=O)c4)cc23)c1F` [P-2188, Propane-1-sulfonic acid {2,4-difluoro-3-[5-(5-methanesulfonyl-pyridin-3-yl)-1H-pyrrolo[2,3-b]pyridine-3-carbonyl]-phenyl}-amide], in data set [1], the IC50 was 5 to 10 µM. In addition, in data set [2], the “turbidity threshold (L, M, H) 7.4” value was “M (moderate solubility if the threshold concentration is 31.3 μM to 250 μM)”; the “turbidity threshold (L, M, H) 4.5” value was “L (low solubility if the threshold concentration is <31.3 04)”; the “turbidity threshold (L, M, H) 6.8” value was “L (low solubility if the threshold concentration is <31.3 04)”; the “turbidity threshold (L, M, H) 1.4” value is “M (moderate solubility if the threshold concentration is 31.3 μM to 250 μM)”.
`CCCS(=O)(=O)Nc1ccc(F)c(C(=O)c2c[nH]c3ncc(-c4cnc(OC)nc4OC)cc23)c1F` [P-2199, Propane-1-sulfonic acid {3-[5-(2,4-dimethoxy-pyrimidin-5-yl)-1H-pyrrolo[2,3-b]pyridine-3-carbonyl]-2,4-difluoro-phenyl}-amide]: the IC50 in data set [1] was more than 10 µM.
In the case of `N#Cc1cnc2[nH]cc(C(=O)c3cccc(NS(=O)(=O)c4c(F)cccc4F)c3F)c2c1` [P-2054, N-[3-(5-Cyano-1H-pyrrolo[2,3-b]pyridine-3-carbonyl)-2-fluoro-phenyl]-2,6-difluoro-benzenesulfonamide], in data set [1], the IC50 was more than 10 µM.
As to `CCCS(=O)(=O)Nc1ccc(F)c(C(=O)c2c[nH]c3ncc(-c4ccc(C(=O)NC5CC5)nc4)cc23)c1F` [P-2181, 5-{3-[2,6-Difluoro-3-(propane-1-sulfonylamino)-benzoyl]-1H-pyrrolo[2,3-b]pyridin-5-yl}-pyridine-2-carboxylic acid cyclopropylamide], the half-maximal inhibitory concentration (IC50) in data set [1] is less than 5 µM. In addition, in data set [2], the “turbidity threshold (L, M, H) 7.4” value is “L (low solubility if the threshold concentration is <31.3 04)”; the “turbidity threshold (L, M, H) 4.5” value is “L (low solubility if the threshold concentration is <31.3 04)”; the “turbidity threshold (L, M, H) 6.8” value is “L (low solubility if the threshold concentration is <31.3 04)”; the “turbidity threshold (L, M, H) 1.4” value is listed as “L (low solubility if the threshold concentration is <31.3 04)”.
In the case of `CCCS(=O)(=O)Nc1ccc(F)c(C(=O)c2c[nH]c3ncc(-c4ccc(OC)nc4OC)cc23)c1F` [P-2184, Propane-1-sulfonic acid {3-[5-(2,6-dimethoxy-pyridin-3-yl)-1H-pyrrolo[2,3-b]pyridine-3-carbonyl]-2,4-difluoro-phenyl}-amide], in data set [1], the IC50 was in the range of 5 to 10 µM. Further, in data set [2], the “turbidity threshold (L, M, H) 7.4” value is given as “L (low solubility if the threshold concentration is <31.3 04)”; the “turbidity threshold (L, M, H) 4.5” value was “L (low solubility if the threshold concentration is <31.3 04)”; the “turbidity threshold (L, M, H) 6.8” value is given as “L (low solubility if the threshold concentration is <31.3 04)”; the “turbidity threshold (L, M, H) 1.4” value was “L (low solubility if the threshold concentration is <31.3 04)”.
Take `N#Cc1ccnc2[nH]cc(C(=O)c3c(F)ccc(NS(=O)(=O)c4c(F)cccc4F)c3F)c12` [P-2037, N-[3-(4-Cyano-1H-pyrrolo[2,3-b]pyridine-3-carbonyl)-2,4-difluoro-phenyl]-2,6-difluoro-benzenesulfonamide]: in data set [1], the IC50 was more than 10 µM.
On to `CCCS(=O)(=O)Nc1ccc(F)c(C(=O)c2c[nH]c3ncc(-c4ccnc(F)c4)cc23)c1F` [P-2192, Propane-1-sulfonic acid {2,4-difluoro-3-[5-(2-fluoro-pyridin-4-yl)-1H-pyrrolo[2,3-b]pyridine-3-carbonyl]-phenyl}-amide], for which the IC50 in data set [1] was in the range of 5 to 10 µM. For the same compound, in data set [2], the “turbidity threshold (L, M, H) 7.4” value is reported as “L (low solubility if the threshold concentration is <31.3 04)”; the “turbidity threshold (L, M, H) 4.5” value is “L (low solubility if the threshold concentration is <31.3 04)”; the “turbidity threshold (L, M, H) 6.8” value is reported as “L (low solubility if the threshold concentration is <31.3 04)”; the “turbidity threshold (L, M, H) 1.4” value was “L (low solubility if the threshold concentration is <31.3 04)”.
As for `CCCS(=O)(=O)Nc1ccc(F)c(C(=O)c2c[nH]c3ncc(-c4ccc(S(N)(=O)=O)cc4)cc23)c1F` [P-2194, 4-{3-[2,6-Difluoro-3-(propane-1-sulfonylamino)-benzoyl]-1H-pyrrolo[2,3-b]pyridin-5-yl}-benzenesulfonamide], the IC50 in data set [1] is more than 10 µM. In data set [2], the “turbidity threshold (L, M, H) 7.4” value was “L (low solubility if the threshold concentration is <31.3 04)”; the “turbidity threshold (L, M, H) 4.5” value is listed as “L (low solubility if the threshold concentration is <31.3 04)”; the “turbidity threshold (L, M, H) 6.8” value is recorded as “L (low solubility if the threshold concentration is <31.3 04)”; the “turbidity threshold (L, M, H) 1.4” value is recorded as “L (low solubility if the threshold concentration is <31.3 04)”.

Broadly, the IC50 is the concentration that inhibits the measured activity by half.

The values above are taken from patent publication US8198273B2, “Compounds and methods for kinase modulation, and indications therefor” (Plexxikon Inc., priority 2009, dated 2012).
